Target: T1, human SSTR5 (Homo sapiens, UniProt P35346)
T1 construct: expressed in transfected cells
Experiment: Inositol phosphate (IP1) accumulation assay, antagonist mode
Type: cell-based
Conditions: CHO-K1 cells stably co-expressing human SSTR5 with Gqi5; pre-incubation with antagonist, then SST28 agonist; IP1 HTRF readout
Description: Inositol Phosphate Accumulation Assay
CHO-K1 cells stably co-expressing human SSTR5 with Gqi5 were developed using Jump-In technology from Thermo-Fisher. Gqi5 is the mouse G alpha q protein, that was modified to interact with Gi-coupled GPCRs as described previously (Coward, P.; Chan, S. D.; Wada, H. G.; Humphries, G. M.; Conklin, B. R. Chimeric G proteins Allow a High-Throughput Signaling Assay of Gi-Coupled Receptors. Anal Biochem. 1999, 270(2), 242-248).
Co-expression of Gqi5 with SSTR5 allowed monitoring of SSTR5 activity by following IP1 accumulation. The assay was performed in a 384-well plate format using the IP1 assay kit from Cis-Bio in an antagonist mode, i.e., pre-incubation with antagonist following by receptor activation by agonist at a concentration generating 90% of full activation. Frozen cells expressing human SSTR5 were thawed, washed, and then plated in DMEM supplemented with 10% FBS and non-essential amino acids. 40 μL of 2.5×10^5 cells/mL were plated on a Poly D-Lysine coated 384-well white plate. The cells were then incubated for 16 hr. at 37° C./5% CO2. After 16 hour the medium was removed, and 10 μL of stimulation buffer was added to the cells. Test compounds were dissolved in DMSO at concentrations 2000-fold that of the final assay concentrations. 7.5 nL compound solutions were transferred to the cell plates using a Labcyte Echo® acoustic liquid handler. The plates were then incubated for 15 minutes at 37° C./5% CO2. After the first incubation, 5 μL of 30 nM SST28 were added to the cells, and the cells were incubated for 90 minutes at 37° C./5% CO2. 5 μL of detection buffer (prepared as described in the IP-1 kit) was added to each well, and the plates were incubated at RT for 1 hour.
TR-FRET was measured using a ClarioSTAR plate reader, calculating the ratio between emissions at 665 nm and 620 nm (HTRF ratio). The HTRF ratio for positive (Max) and negative (Min) controls were used to normalize HTRF data and generate values for % inhibition. IC50 and maximal inhibition values were determined using a standard 4-parameter fit.

T1 sequence (P35346 whole entry): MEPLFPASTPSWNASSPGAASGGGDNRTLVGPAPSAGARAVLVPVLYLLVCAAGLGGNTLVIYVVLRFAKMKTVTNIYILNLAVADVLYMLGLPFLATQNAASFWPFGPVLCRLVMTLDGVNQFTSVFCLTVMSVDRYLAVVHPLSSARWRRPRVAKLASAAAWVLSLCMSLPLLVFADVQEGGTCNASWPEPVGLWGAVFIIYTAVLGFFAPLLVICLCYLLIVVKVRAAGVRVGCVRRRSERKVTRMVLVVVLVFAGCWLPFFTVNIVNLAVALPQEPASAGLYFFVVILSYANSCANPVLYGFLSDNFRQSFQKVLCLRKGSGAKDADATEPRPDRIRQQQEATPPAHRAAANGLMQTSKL

| IC50 [nM] | SMILES |
| --- | --- |
| 1000 to 5000 | CCOc1cc(C(=O)OC)c(C2CC2)cc1CN1CCC2(CC1)CC(=O)N(c1ccc(CCCCNC(N)=O)cc1)C2 [Compound 20, methyl 2-cyclopropyl-5-ethoxy-4-((3-oxo-2-(4-(4-ureidobutyl)phenyl)-2,8-diazaspiro[4.5]decan-8-yl)methyl)benzoate] |
| 100 to 1000 | CCOc1cc(C(=O)OC)c(C2CC2)cc1CN1CCC2(CC1)CC(=O)N(c1ccc(CCCCNC=O)cc1)C2 [Compound 17, methyl 2-cyclopropyl-5-ethoxy-4-((2-(4-(4-formamidobutyl)phenyl)-3-oxo-2,8-diazaspiro[4.5]decan-8-yl)methyl)benzoate] |
| ≤ 100 | CCOc1cc(C#N)c(C2CC2)cc1CN1CCC2(CC1)CN(c1ccc(P(C)(=O)O)cc1)C(=O)O2 [Compound 8, (4-(8-(4-cyano-5-cyclopropyl-2-ethoxybenzyl)-2-oxo-1-oxa-3,8-diazaspiro[4.5]decan-3-yl)phenyl)(methyl)phosphinic acid] |
| ≤ 100 | CCOc1cc(-c2ccc(F)cc2)c(C2CC2)cc1CN1CCC2(CC1)CN(c1ccc(CNC[C@H](O)[C@@H](O)[C@H](O)[C@H](O)CO)cc1)C(=O)O2 [Compound 32, 8-((2-cyclopropyl-5-ethoxy-4'-fluoro-[1,1'-biphenyl]-4-yl)methyl)-3-(4-((((2S,3R,4R,5R)-2,3,4,5,6-pentahydroxyhexyl)amino)methyl)phenyl)-1-oxa-3,8-diazaspiro [4.5]decan-2-one] |
| 1000 to 5000 | CCOc1cc(C(=O)OC)c(C2CC2)cc1CN1CCC2(CC1)CC(=O)N(c1ccc(CCCCNS(C)(=O)=O)cc1)C2 [Compound 18, methyl 2-cyclopropyl-5-ethoxy-4-((2-(4-(4-(methylsulfonamido)butyl)phenyl)-3-oxo-2,8-diazaspiro[4.5]decan-8-yl)methyl)benzoate] |
| ≤ 100 | CCOc1cc(-c2nc(C)no2)c(C2CC2)cc1CN1CCC2(CC1)CN(c1ccc(P(=O)(O)O)cc1)C(=O)O2 [Compound 26, (4-(8-(5-cyclopropyl-2-ethoxy-4-(3-methyl-1,2,4-oxadiazol-5-yl)benzyl)-2-oxo-1-oxa-3,8-diazaspiro[4.5]decan-3-yl)phenyl)phosphonic acid] |
| 100 to 1000 | CCOc1cc(C(=O)OC(C)C)c(C2CC2)cc1CN1CCC2(CC1)CC(=O)N(c1ccc(P(=O)(O)O)cc1)C2 [Compound 24, (4-(8-(5-cyclopropyl-2-ethoxy-4-(isopropoxycarbonyl)benzyl)-3-oxo-2,8-diazaspiro[4.5]decan-2-yl)phenyl)phosphonic acid] |
| ≤ 100 | CCOc1cc(C(=O)OC)c(C2CC2)cc1CN1CCC2(CC1)CN(c1ccc(P(=O)(O)O)cc1)C(=O)N2 [Compound 21, (4-(8-(5-cyclopropyl-2-ethoxy-4-(methoxycarbonyl)benzyl)-2-oxo-1,3,8-triazaspiro[4.5]decan-3-yl)phenyl)phosphonic acid] |
| 1000 to 5000 | CCOc1cc(C(=O)OC)c(C2CC2)cc1CN1CCC2(CC1)CC(=O)N(c1ccc(CCCCNC(=O)CO)cc1)C2 [Compound 19, methyl 2-cyclopropyl-5-ethoxy-4-((2-(4-(4-(2-hydroxyacetamido)butyl)phenyl)-3-oxo-2,8-diazaspiro[4.5]decan-8-yl)methyl)benzoate] |
| > 5000 | CCOc1cc(C(=O)OC)c(C2CC2)cc1CN1CCC2(CC1)CC(=O)N(c1ccc(CCCCNC(=O)NC(CO)(CO)CO)cc1)C2 [Compound 16, methyl 2-cyclopropyl-4-((2-(4-(4-(3-(1,3-dihydroxy-2-(hydroxymethyl)propan-2-yl)ureido)butyl)phenyl)-3-oxo-2,8-diazaspiro[4.5]decan-8-yl)methyl)-5-ethoxybenzoate] |
| ≤ 100 | CCOc1cc(-c2ccc(F)cc2)c(C2CC2)cc1CN1CCC2(CC1)CN(c1ccc(CP(=O)(O)O)cc1)C(=O)O2 [Compound 30, (4-(8-((2-cyclopropyl-5-ethoxy-4'-fluoro-[1,1'-biphenyl]-4-yl)methyl)-2-oxo-1-oxa-3,8-diazaspiro[4.5]decan-3-yl)benzyl)phosphonic acid] |
| > 5000 | CCOc1cc(C(=O)OC)c(C2CC2)cc1CN1CCC2(CC1)CC(=O)N(c1ccc(P(=O)(O)O)cc1)C2 [Compound 23, (4-(8-(5-cyclopropyl-2-ethoxy-4-(methoxycarbonyl)benzyl)-3-oxo-2,8-diazaspiro[4.5]decan-2-yl)phenyl)phosphonic acid] |
| ≤ 100 | CCOc1cc(-c2ccc(F)cc2)c(C2CC2)cc1CN1CCC2(CC1)CN(c1ccc(P(C)(=O)O)cc1)C(=O)N2 [Compound 28, (4-(8-((2-cyclopropyl-5-ethoxy-4′-fluoro-[1,1′-biphenyl]-4-yl)methyl)-2-oxo-1,3,8-triazaspiro[4.5]decan-3-yl)phenyl)(methyl)phosphinic acid] |

Further lines, the compound ahead of its results:

| SMILES | IC50 [nM] |
| --- | --- |
| CCOc1nc(-c2ccc(F)cc2)c(C2CC2)cc1CN1CCC2(CC1)CN(c1ccc(P(=O)(O)O)cc1)C(=O)O2 [Compound 10, (4-(8-((5-cyclopropyl-2-ethoxy-6-(4-fluorophenyl)pyridin-3-yl)methyl)-2-oxo-1-oxa-3,8-diazaspiro[4.5]decan-3-yl)phenyl)phosphonic acid] | ≤ 100 |
| CCOc1cc(-c2ccc(F)cc2)c(C2CC2)cc1CN1CCN(S(=O)(=O)Cc2ccc(P(=O)(O)O)cc2)CC1 [Compound 38, (4-(((4-((2-cyclopropyl-5-ethoxy-4′-fluoro-[1,1′-biphenyl]-4-yl)methyl)piperazin-1-yl)sulfonyl)methyl)phenyl)phosphonic acid] | ≤ 100 |
| CCOc1cc(-c2ccc(F)cc2)c(C2CC2)cc1CN1CCC2(CC1)CN([C@H]1CC[C@H](P(=O)(O)O)CC1)C(=O)O2 (single isomer, unassigned) [Compound 34, ((trans)-4-(8-((2-cyclopropyl-5-ethoxy-4'-fluoro-[1,1'-biphenyl]-4-yl)methyl)-2-oxo-1-oxa-3,8-diazaspiro[4.5]decan-3-yl)cyclohexyl)phosphonic acid] | ≤ 100 |
| CCOc1nc(-c2ccc(F)cc2)c(C2CC2)cc1CN1CCC2(CC1)CN(C13CC(CP(=O)(O)O)(C1)C3)C(=O)O2 [Compound 11, ((3-(8-((5-cyclopropyl-2-ethoxy-6-(4-fluorophenyl)pyridin-3-yl)methyl)-2-oxo-1-oxa-3,8-diazaspiro[4.5]decan-3-yl)bicyclo[1.1.1]pentan-1-yl)methyl)phosphonic acid] | ≤ 100 |
| CCOc1cc(-c2ccc(F)cc2)c(C2CC2)cc1CN1CCN(C(=O)Cc2ccc(P(=O)(O)OCC)cc2)CC1 [Compound 40, ethyl hydrogen (4-(2-(4-((2-cyclopropyl-5-ethoxy-4′-fluoro-[1,1′-biphenyl]-4-yl)methyl)piperazin-1-yl)-2-oxoethyl)phenyl)phosphonate] | ≤ 100 |
| CCOc1cc(-c2ccc(F)cc2)c(C2CC2)cc1CN1CCN(C(=O)Cc2ccc(P(=O)(O)O)cc2)CC1 [Compound 41, (4-(2-(4-((2-cyclopropyl-5-ethoxy-4′-fluoro-[1,1′-biphenyl]-4-yl)methyl)piperazin-1-yl)-2-oxoethyl)phenyl)phosphonic acid] | ≤ 100 |
| CCOc1cc(-c2ccc(F)cc2)c(C2CC2)cc1CN1CCC2(CC1)CN([C@H]1CC[C@@H](P(=O)(O)O)CC1)C(=O)O2 (single isomer, unassigned) [Compound 33, ((cis)-4-(8-((2-cyclopropyl-5-ethoxy-4'-fluoro-[1,1'-biphenyl]-4-yl)methyl)-2-oxo-1-oxa-3,8-diazaspiro[4.5]decan-3-yl)cyclohexyl)phosphonic acid] | ≤ 100 |
| CCOc1cc(-c2ccc(F)cc2)c(C2CC2)cc1CN1CCC2(CC1)CN(c1ccc(P(=O)(O)O)cn1)C(=O)O2 [Compound 5, (6-(8-((2-cyclopropyl-5-ethoxy-4′-fluoro-[1,1′-biphenyl]-4-yl)methyl)-2-oxo-1-oxa-3,8-diazaspiro[4.5]decan-3-yl)pyridin-3-yl)phosphonic acid] | ≤ 100 |
| CCOc1cc(-c2ccc(F)cc2)c(C2CC2)cc1CN1CCC2(CC1)CN(c1ccc(P(=O)(O)OCC)cc1)C(=O)N2 [Compound 25, ethyl hydrogen (4-(8-((2-cyclopropyl-5-ethoxy-4′-fluoro-[1,1′-biphenyl]-4-yl)methyl)-2-oxo-1,3,8-triazaspiro[4.5]decan-3-yl)phenyl)phosphonate] | ≤ 100 |
| CCOc1cc(-c2ccc(F)cc2)c(C2CC2)cc1CN1CCC2(CC1)CN(c1ccc(P(=O)(O)O)nc1)C(=O)O2 [Compound 6, (5-(8-((2-cyclopropyl-5-ethoxy-4′-fluoro-[1,1′-biphenyl]-4-yl)methyl)-2-oxo-1-oxa-3,8-diazaspiro[4.5]decan-3-yl)pyridin-2-yl)phosphonic acid] | ≤ 100 |
| CCOc1cc(-c2ccc(F)cc2)c(C(C)C)cc1CN1CCC2(CC1)CN(c1ccc(P(=O)(O)O)cc1)C(=O)O2 [Compound 37, (4-(8-((5-ethoxy-4'-fluoro-2-isopropyl-[1,1'-biphenyl]-4-yl)methyl)-2-oxo-1-oxa-3,8-diazaspiro[4.5]decan-3-yl)phenyl)phosphonic acid] | ≤ 100 |

Source: US20230050965A1, “SSTR5 ANTAGONISTS” (Kallyope, Inc., priority 2019, published 2023)
